From patent US4870183A, “Novel amino acid derivatives” (priority 1986, dated 1989)

Legend:
[1] = target: T1, renin in human high renin plasma (Homo sapiens, UniProt P00797); assay: Renin inhibitory effect in a human high renin plasma; type: biochemical
T1 construct: from tissue; host or cells: human high renin plasma
T1 sequence (P00797 67-406): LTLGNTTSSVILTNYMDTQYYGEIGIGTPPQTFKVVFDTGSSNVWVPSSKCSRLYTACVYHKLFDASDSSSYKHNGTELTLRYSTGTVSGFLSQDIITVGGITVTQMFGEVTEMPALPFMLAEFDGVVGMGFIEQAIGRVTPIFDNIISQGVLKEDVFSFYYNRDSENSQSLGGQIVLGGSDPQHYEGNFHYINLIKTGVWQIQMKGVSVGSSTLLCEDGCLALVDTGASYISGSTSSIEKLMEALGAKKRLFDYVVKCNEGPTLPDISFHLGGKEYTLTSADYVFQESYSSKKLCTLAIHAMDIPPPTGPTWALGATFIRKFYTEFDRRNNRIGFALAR
Procedure: Renin Inhibitory Effect in a Human High Renin Plasma
Two hundred μl of the mixture was placed on an ice bath, at 4° C., and remaining mixture (800 μl) was incubated for 60 minutes at 37° C. on a water bath. Two hundred μl of the incubated remaining mixture was chilled immediately on an ice bath, and the amount (A) of angiotensin I produced was determined by radioimmunoassay using renin riabead kit (DAINABOT).
The amount (B) of angiotensin I in the mixture placed on an ice bath at 4° C. was also determined by radioimmunoassay.
As a control, the same procedure as above was carried out by using 100 μl of dimethyl sulfoxide alone in place of 100 μl of dimethyl sulfoxide solution containing an amino acid compound of the present invention.
The net amount was estimated as the difference between A and B.
The inhibitory effect was calculated by the following equation. [formula]

[2] = target: T2, human renin (Homo sapiens, UniProt P00797); assay: Inhibitory effect on human renin-sheep renin substrate reaction system in vitro; type: biochemical
T2 sequence (P00797 67-406): T1 sequence (P00797 67-406)
Procedure: Inhibitory effect on human renin-sheep renin substrate reaction system in vitro
The mixture was incubated for 15 minutes on a water bath at 37° C., and the reaction mixture was allowed to stand for 5 minutes on a water bath at 100° C. to stop the reaction. After cooling, 200 μl of the solution was taken up and the amount of angiotensin I produced by the addition of renin was determined by radioimmunoassay using renin riabead kit (DAINABOT).
The inhibitory effect was calculated by the following equation.
As a control, the same procedure as above was carried out by using 50 μl of dimethyl sulfoxide alone in place of the 50 μl of dimethyl sulfoxide solution containing an amino acid compound of the present invention. [formula]

[3] = target: T3, plasma renin activity (Callithrix jacchus, UniProt Q9TSZ1); assay: Renin inhibitory effect in plasma on common marmoset (plasma renin activity after oral dosing); type: in vivo; details: 30 mg/kg oral single dose, furosemide-treated conscious marmosets, control 43.16
T3 construct: from tissue; host or cells: plasma of furosemide-treated conscious male common marmosets
T3 sequence (Q9TSZ1 61-400): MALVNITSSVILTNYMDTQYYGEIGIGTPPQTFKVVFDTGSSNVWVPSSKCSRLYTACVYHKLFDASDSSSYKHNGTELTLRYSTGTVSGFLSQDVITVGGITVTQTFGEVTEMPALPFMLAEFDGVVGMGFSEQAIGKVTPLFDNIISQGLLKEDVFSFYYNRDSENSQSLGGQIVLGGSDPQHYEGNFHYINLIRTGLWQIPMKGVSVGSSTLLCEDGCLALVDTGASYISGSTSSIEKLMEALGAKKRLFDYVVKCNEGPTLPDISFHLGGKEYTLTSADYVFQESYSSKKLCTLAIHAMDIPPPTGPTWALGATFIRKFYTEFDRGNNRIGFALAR
Procedure: Renin Inhibitory Effect in Plasma on Common Marmoset
The experiment was carried out by using common marmoset as described in K. G. Hofbauer et al., CLINICAL AND EXPERIMENTAL HYPERTENSION, Vol. A5, Nos. 7 & 8 (1983), pages 1237-1247.
Furosemide was administered orally three times to common marmoset having a lower salt diet at 15 mg per kilogram per day every other day to create a high renin state. The experiment was carried out on the third day after the last furosemide dose.
Three conscious male marmosets weighing 310-460 g were placed into small restraining chair, and by using a catheter into the femoral artery, blood collecting was carried out at intervals of 60, 180 and 300 minutes.
Collected blood samples were centrifuged at 1200×g for 15 minutes at 4° C. Two hundred μl of the plasma was taken up and incubated for 60 minutes at 37° C., and the plasma renin activity was measured by radioimmunoassay using renin riabead kit (DAINABOT).
Compound A of this invention was dissolved in dilute hydrochloric acid, and administered orally at single dose of 30 mg/kg using catheter.

[4] = Hypotensive effect in marmoset (tail cuff blood pressure, high renin state); type: in vivo, common marmoset; details: 30 mg/kg oral, conscious high renin marmoset, control 99.7
Procedure: Hypotensive Effect in Marmoset
The experiment was carried out by using common marmoset as described in K. G. Hofbauer et al., Clinical and Experimental Hypertension, Vol. A5, Nos. 7 & 8 pages 1237-1247.
Furosemide was administered orally three times to common marmoset at 15 mg per kilogram per day every other day to create a high renin state. Blood pressure of conscious marmoset was measured on the third day after the last furosemide dose.
A conscious male marmoset weighing 340 g was placed into small restraining chair. Blood pressure was measured on the tail cuff method using pretismograph. Compound A of this invention was dissolved in dilute hydrochloric acid, and administered orally at 30 mg/kg by using a catheter.

## CC(C)OC(=O)C(O)[C@H](CC1CCCCC1)NC(=O)[C@H](Cc1c[nH]cn1)NC(=O)C(Cc1ccccc1F)Cc1ccccc1F (mixture of isomers) [Compound A, (2RS, 3S)-3-{N-[Bis(2-fluorobenzyl)acetyl]-L-histidyl}amino-4-cyclohexyl-2-hydroxybutyric acid isopropyl ester]
[1]
  IC50: 0.13 µM
[2]
  IC50: 0.0094 µM
[3]; 60 minutes after administration
  PRA: 30.35 ng angiotensin I/ml/hr
[3]; 180 minutes after administration
  PRA: 18.89 ng angiotensin I/ml/hr
[3]; 300 minutes after administration
  PRA: 22.93 ng angiotensin I/ml/hr
[4]; 0.5 hours after administration
  Blood pressure: 94.7 mmHg
[4]; 1 hour after administration
  Blood pressure: 86.2 mmHg
[4]; 2 hours after administration
  Blood pressure: 89.7 mmHg
[4]; 3 hours after administration
  Blood pressure: 86.2 mmHg
[4]; 5 hours after administration
  Blood pressure: 85.7 mmHg
